Laboratory results from ChEMBL document CHEMBL5257090, “Modulation of in Vitro SARS-CoV-2 Infection by Stephania tetrandra and Its Alkaloid Constituents” (J Nat Prod, 2023).
Active and inactive are the calls of the source. The calls are words filed in the database; no cut-off is given here.

Columns and labels:
[1] = system: HEK-293T; experiment: Cytotoxicity against HEK293T cells at 0.1 uM assessed as reduction in cell viability by CellTiter-Glo assay; type: toxicity, cell-based; settings: human
[2] = system: HEK-293T; experiment: Cytotoxicity against HEK293T cells at 10 uM assessed as reduction in cell viability by CellTiter-Glo assay; type: toxicity, cell-based; settings: human
[3] = system: SARS-CoV-2; experiment: Antiviral activity against SARS-CoV-2 infected in HEK293T cells expressing ACE2/TMPRSS2 assessed as reduction in virus-induced cytopathic effect at 5 to 10 uM measured after 48 hrs by cellular ATP assay; type: functional, organism-based; settings: Severe acute respiratory syndrome coronavirus 2, dose 5-10 µM
[4] = system: SARS-CoV-2; experiment: Antiviral activity against SARS-CoV-2 infected in HEK293T cells expressing ACE2/TMPRSS2 assessed as reduction in virus-induced cytopathic effect measured after 48 hrs by cellular ATP assay; type: functional, organism-based; settings: Severe acute respiratory syndrome coronavirus 2, HEK-293T
[5] = system: SARS-CoV-2; experiment: Antiviral activity against SARS-CoV-2 infected in HEK293T cells expressing ACE2/TMPRSS2 assessed as reduction in virus-induced cytopathic effect at 10 uM measured after 48 hrs by cellular ATP assay; type: functional, Severe acute respiratory syndrome coronavirus 2; design: scale not given: the % may be the effect or the level left
[6] = system: SARS-CoV-2; experiment: Antiviral activity against SARS-CoV-2 infected in HEK293T cells expressing ACE2/TMPRSS2 assessed as reduction in virus-induced cytopathic effect at 2.5 uM measured after 48 hrs by cellular ATP assay; type: functional, Severe acute respiratory syndrome coronavirus 2; design: scale not given: the % may be the effect or the level left
[7] = system: HEK-293T; experiment: Cytotoxicity against HEK293T cells at 2.5 to 10 uM assessed as reduction in cell viability by CellTiter-Glo assay; type: toxicity, cell-based; settings: human, dose 2.5-10 µM
[8] = Induction of phospholipidosis in HEK293T cells expressing ACE-2/TMPRSS2 at 1 uM measured after 24 hrs by DAPI staining based fluorescence microscopic analysis; type: toxicity, cell-based; settings: human, hek-293t
[9] = Induction of phospholipidosis in HEK293T cells expressing ACE-2/TMPRSS2 at 100 to 300 nM measured after 24 hrs by DAPI staining based fluorescence microscopic analysis; type: toxicity, cell-based; settings: human, hek-293t, 0.3 µM, dose 100-300 nM
[10] = system: SARS-CoV-2; experiment: Antiviral activity against SARS-CoV-2 delta infected in African green monkey Vero E6 cells expressing ACE-2/TMPRSS2 assessed as reduction in virus-induced cytopathic effect at 0.31 to 2.5 uM measured after 48 hrs by cellular ATP assay; type: functional, organism-based; settings: Severe acute respiratory syndrome coronavirus 2, dose 0.31-2.5 µM
[11] = Permeability of the compound in pH 7.4 measured after 5 hrs by LC-MS based PAMPA assay; type: ADME; settings: pH 7.4, 5 h
[12] = Cytotoxicity against HEK293T cells assessed as reduction in cell viability by CellTiter-Glo assay; type: toxicity, cell-based, HEK-293T; settings: human
[13] = Induction of phospholipidosis in African green monkey Vero E6 cells expressing ACE-2/TMPRSS2 at 100 to 300 nM measured after 24 hrs by DAPI staining based fluorescence microscopic analysis; type: toxicity, cell-based; settings: chlorocebus sabaeus, vero c1008, 24 h, 0.3 µM, dose 100-300 nM
[14] = system: HEK-293T; experiment: Downregulation of ORF1ab gene expression in HEK293T cells expressing ACE-2/TMPRSS2 infected with SARS-CoV-2 assessed as fold change preincubated with compound for 2 hrs followed by viral infection and measured after 24 hrs relative to MPV; type: functional, cell-based; settings: Homo sapiens, time 26.0 hrs
[15] = system: SARS-CoV-2; experiment: Antiviral activity against wild-type SARS-CoV-2 USA-WA1/2020 NR-52281 infected in African green monkey Vero E6 cells expressing ACE-2/TMPRSS2 assessed as reduction in virus-induced cytopathic effect at 0.31 to 2.5 uM measured after 48 hrs by cellular ATP assay; type: functional, organism-based; settings: Severe acute respiratory syndrome coronavirus 2, dose 0.31-2.5 µM
[16] = system: HEK-293T; experiment: Up-regulation of leukocyte proliferation genes in HEK293T cells expressing ACE-2/TMPRSS2 infected with SARS-CoV-2 preincubated with compound for 2 hrs followed by viral infection and measured after 24 hrs by gene ontology analysis; type: functional, cell-based; settings: Homo sapiens, time 26.0 hrs
[17] = system: HEK-293T; experiment: Downregulation of viral nucleocapsid N gene expression in HEK293T cells expressing ACE-2/TMPRSS2 infected with SARS-CoV-2 assessed as fold change preincubated with compound for 2 hrs followed by viral infection and measured after 24 hrs relative to MPV; type: functional, cell-based; settings: Homo sapiens, time 26.0 hrs

SMILES | IC50 [4] [nM] | Activity [8] | Activity [9] | CC50 [12] [nM] | Activity [13] | Activity [14] | Activity [15] | further results
CCC(CC)COC(=O)[C@H](C)N[P@](=O)(OC[C@H]1O[C@@](C#N)(c2ccc3c(N)ncnn23)[C@H](O)[C@@H]1O)Oc1ccccc1 | – | – | – | – | – | – | – | Activity [1]: Non-Toxic; Activity [2]: Toxic
CN1[C@@H](CC(=O)c2ccccc2)CCC[C@H]1C[C@H](O)c1ccccc1 | – | – | – | – | – | – | – | Activity [3]: inactive
O=C(O)[C@H]1O[C@@H](Oc2cc3oc(-c4ccccc4)cc(=O)c3c(O)c2O)[C@H](O)[C@@H](O)[C@@H]1O | – | – | – | – | – | – | – | Activity [3]: inactive
O=c1cc(-c2ccccc2)oc2cc(O)c(O)c(O)c12 [BAICALEIN] | 5100 | – | – | – | – | – | – | –
CN(C)C(=O)COC(=O)Cc1ccc(OC(=O)c2ccc(NC(=N)N)cc2)cc1 [CAMOSTAT] | – | – | – | – | – | – | – | Activity [5]: 54.5%; Activity [6]: 23%; Activity [7]: Non-Toxic
COc1ccc2cc1Oc1ccc(cc1)C[C@H]1c3c(cc4c(c3Oc3cc5c(cc3OC)CCN(C)[C@@H]5C2)OCO4)CCN1C [CEPHARANTHINE] | 143 | Toxic | Non-Toxic | 2100 | Non-Toxic | Active | inactive | Activity [10]: Active; permeability [11]: Permeable
COc1ccc2cc1Oc1ccc(cc1)C[C@H]1c3cc(c(OC)cc3CCN1C)Oc1c(OC)c(OC)cc3c1[C@H](C2)N(C)CC3 [FANCHININ] | 284 | Toxic | Non-Toxic | > 1000 | Non-Toxic | Active | inactive | Activity [16]: Active; permeability [11]: Permeable; Activity [17]: Active
COc1ccc2cc1Oc1ccc(cc1)C[C@H]1c3cc(c(OC)cc3CCN1C)Oc1c(O)c(OC)cc3c1[C@H](C2)N(C)CC3 [FANGCHINOLINE] | 193 | Toxic | Non-Toxic | > 1000 | Non-Toxic | Active | inactive | Activity [16]: Active
